Results on one compound are retold here after article PMC6934184, “Selective DNA-PKcs inhibition extends the therapeutic index of localized radiotherapy and chemotherapy” (The Journal of Clinical Investigation, 2019).

A word on the inhibition: it is the change of the read-out against control, counted positive when it falls.

The experiment addresses T1, ABL2 (Arg) (Homo sapiens, UniProt P42684).
T1 construct: purchased Thermo Fisher Scientific (Life Technologies) SelectScreen
The experiment can be described thus: SelectScreen Z'LYTE. Type of experiment: biochemical. An outline of the steps:
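NU5455 was profiled across the SelectScreen Broad panel of kinase activity and binding assays. Z'LYTE reactions such as CSF1R ran at apparent Km ATP, while the Adapta CAMK1 assay used ATP listed as 10. Values are given as percent.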

T1 sequence (P42684 whole entry): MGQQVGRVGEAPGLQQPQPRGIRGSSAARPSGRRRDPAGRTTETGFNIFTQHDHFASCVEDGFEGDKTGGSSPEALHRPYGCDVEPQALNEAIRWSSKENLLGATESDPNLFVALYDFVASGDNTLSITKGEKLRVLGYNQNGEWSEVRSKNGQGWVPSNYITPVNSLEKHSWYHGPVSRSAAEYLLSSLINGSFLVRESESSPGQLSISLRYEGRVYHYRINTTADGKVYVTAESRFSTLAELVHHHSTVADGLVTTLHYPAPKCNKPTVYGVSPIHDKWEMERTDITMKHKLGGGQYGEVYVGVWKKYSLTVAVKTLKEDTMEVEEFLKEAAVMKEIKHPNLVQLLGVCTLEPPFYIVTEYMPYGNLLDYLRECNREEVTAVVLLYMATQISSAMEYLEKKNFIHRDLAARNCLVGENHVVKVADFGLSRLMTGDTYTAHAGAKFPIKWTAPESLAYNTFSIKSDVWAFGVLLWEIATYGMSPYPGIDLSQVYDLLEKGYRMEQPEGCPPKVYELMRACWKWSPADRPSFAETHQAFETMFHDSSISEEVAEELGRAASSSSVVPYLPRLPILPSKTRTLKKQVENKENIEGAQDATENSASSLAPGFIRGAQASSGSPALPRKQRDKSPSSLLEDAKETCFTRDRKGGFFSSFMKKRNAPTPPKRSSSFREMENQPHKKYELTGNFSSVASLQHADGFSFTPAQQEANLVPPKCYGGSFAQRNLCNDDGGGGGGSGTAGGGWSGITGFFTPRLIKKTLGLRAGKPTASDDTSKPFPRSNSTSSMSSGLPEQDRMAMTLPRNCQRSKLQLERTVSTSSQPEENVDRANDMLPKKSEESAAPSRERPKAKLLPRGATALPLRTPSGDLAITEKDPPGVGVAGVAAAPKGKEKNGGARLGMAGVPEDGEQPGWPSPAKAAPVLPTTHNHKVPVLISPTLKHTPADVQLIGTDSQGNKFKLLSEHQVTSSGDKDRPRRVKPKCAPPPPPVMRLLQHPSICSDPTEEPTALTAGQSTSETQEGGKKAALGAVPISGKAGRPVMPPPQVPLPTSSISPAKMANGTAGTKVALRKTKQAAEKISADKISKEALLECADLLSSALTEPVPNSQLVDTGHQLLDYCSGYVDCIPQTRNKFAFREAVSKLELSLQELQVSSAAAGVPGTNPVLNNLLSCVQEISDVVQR

Turning to `CN(C(=O)CN1CCOCC1)c1ccc2sc3c(-c4cccc5c(=O)cc(N6CC7CCC(C6)O7)oc45)cccc3c2c1` [NU5455], the inhibition at 1 µM is -10.3%.
